Reference: EP1202975B1, “SUBSTITUTED POLYCYCLIC ARYL AND HETEROARYL PYRAZINONES USEFUL FOR SELECTIVE INHIBITION OF THE COAGULATION CASCADE” (Pharmacia Corporation, priority 1999, dated 2000)
Like-named read-outs stand apart in the source and are kept apart here.

How the values were obtained:
TF-VIIa = biological target: T1, TF-VIIa (Homo sapiens, UniProt P08709); assay: TF-VIIa Assay; type: biochemical
T1 construct: 2nM recombinant human factor VIIa; purchased American Diagnostica, Greenwich CT; host or cells: soluble TF made in house in E. coli

Human factor Xa = Human factor Xa (Homo sapiens, UniProt P00742); assay: Xa Assay; conditions: for IC50 or % Inhibition Factor Xa (30 µM): % inhibition at 30 µM
[1] = read-out: IC50 or % Inhibition TF-VIIa (30 µM); cells given as a plain number (IC50)
[2] = read-out: IC50 or % Inhibition Factor Xa (30 µM), cells given as a plain number (IC50)
[3] = cells given as a plain number (IC50); read-out: IC50 or % Inhibition TF-VIIa (30 µM)

T1 sequence (P08709 213-466 limits assumed): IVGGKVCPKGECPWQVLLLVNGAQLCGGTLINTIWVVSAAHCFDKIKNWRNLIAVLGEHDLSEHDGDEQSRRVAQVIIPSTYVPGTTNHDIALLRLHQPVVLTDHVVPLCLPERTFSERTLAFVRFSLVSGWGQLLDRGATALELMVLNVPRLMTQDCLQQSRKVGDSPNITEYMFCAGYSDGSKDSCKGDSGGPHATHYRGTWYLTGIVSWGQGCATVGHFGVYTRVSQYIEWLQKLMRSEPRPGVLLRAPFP
T1 sequence (P08709 61-212 limits assumed): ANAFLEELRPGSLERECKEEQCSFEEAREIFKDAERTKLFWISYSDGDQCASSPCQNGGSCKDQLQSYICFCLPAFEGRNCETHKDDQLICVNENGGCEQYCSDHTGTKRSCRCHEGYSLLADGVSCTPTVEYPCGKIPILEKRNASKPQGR
T1 sequence (P13726 33-251 partner limits assumed): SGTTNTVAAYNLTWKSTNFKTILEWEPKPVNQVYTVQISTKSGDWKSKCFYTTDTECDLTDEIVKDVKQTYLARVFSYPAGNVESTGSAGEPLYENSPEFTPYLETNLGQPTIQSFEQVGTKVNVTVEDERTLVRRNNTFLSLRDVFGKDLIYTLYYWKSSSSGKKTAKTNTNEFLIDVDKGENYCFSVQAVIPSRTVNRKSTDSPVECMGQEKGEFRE
Human factor Xa, sequence (P00742 235-488 limits assumed): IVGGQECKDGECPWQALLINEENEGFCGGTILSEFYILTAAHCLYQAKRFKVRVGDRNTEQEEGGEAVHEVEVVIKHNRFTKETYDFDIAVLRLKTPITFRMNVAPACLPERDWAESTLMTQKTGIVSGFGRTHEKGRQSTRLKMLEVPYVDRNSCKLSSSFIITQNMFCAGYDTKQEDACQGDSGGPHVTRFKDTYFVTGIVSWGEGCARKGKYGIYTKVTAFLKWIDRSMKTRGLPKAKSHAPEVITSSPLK
Human factor Xa, sequence (P00742 41-179 limits assumed): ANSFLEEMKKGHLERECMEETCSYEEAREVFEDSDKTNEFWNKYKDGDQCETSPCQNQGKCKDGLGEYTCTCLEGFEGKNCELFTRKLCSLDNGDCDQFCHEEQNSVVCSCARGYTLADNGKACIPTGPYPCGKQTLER

Row | Structure (SMILES) | IC50 (TF-VIIa; [1]) [nM] | IC50 (Human factor Xa; [2]) [µM] | IC50 (TF-VIIa; [3]) [nM] | IC50 or % Inhibition Factor Xa (30 µM) (Human factor Xa) | also measured
1 | N=C(N)c1ccc(CNC(=O)Cn2c(-c3ccccc3)c(Cl)nc(NCCCCN3CCCC3)c2=O)cc1 [1522-42] | 1000 | > 30 | – | – | –
2 | C[C@H](Nc1nc(Cl)c(-c2ccccc2)n(CC(=O)NCc2ccc(C(=N)N)cc2)c1=O)C1CCCCC1 [1522-43] | 800 | > 30 | – | – | –
3 | N=C(N)c1ccc(CNC(=O)Cn2c(-c3ccccc3)c(Cl)nc(NC3CC4CCC3C4)c2=O)cc1 (centres unmarked) [1522-44] | – | > 30 | 800 | – | –
4 | N=C(N)c1ccc(CNC(=O)Cn2c(-c3ccccc3)c(Cl)nc(NC3CCS(=O)(=O)C3)c2=O)cc1 (centres unmarked) [1522-46] | – | > 30 | 1000 | – | –
5 | N=C(N)c1ccc(CNC(=O)Cn2c(-c3cccc(N)c3)c(Cl)nc(NC3CC3)c2=O)cc1 [1526-01] | 20 | > 30 | – | – | –
6 | N=C(N)c1ccc(CNC(=O)Cn2c(-c3cccc(N)c3)c(Cl)nc(NCC(F)(F)F)c2=O)cc1 [1526-04] | 30 | > 30 | – | – | –
7 | COCC(C)Nc1nc(Cl)c(-c2cccc(N)c2)n(CC(=O)NCc2ccc(C(=N)N)cc2)c1=O (centres unmarked) [1526-05] | 100 | > 30 | – | – | –
8 | CC(C)(C)Nc1nc(Cl)c(-c2cccc(N)c2)n(CC(=O)NCc2ccc(C(=N)N)cc2)c1=O [1526-07] | 80 | > 30 | – | – | –
9 | CC[C@H](C)Nc1nc(Cl)c(-c2cccc(N)c2)n(CC(=O)NCc2ccc(C(=N)N)cc2)c1=O [1526-09] | 30 | > 30 | – | – | –
10 | CCC(CC)Nc1nc(Cl)c(-c2cccc(N)c2)n(CC(=O)NCc2ccc(C(=N)N)cc2)c1=O [1526-11] | – | > 30 | 50 | – | –
11 | CCCNc1nc(Cl)c(-c2cccc(N)c2)n(CC(=O)NCc2ccc(C(=N)N)cc2)c1=O [1526-13] | 60 | > 30 | – | – | –
12 | CCC(C)Nc1nc(Cl)c(-c2cccc(N)c2)n(CC(=O)NCc2ccc(C(=N)N)cc2)c1=O (centres unmarked) [1526-14] | 40 | > 30 | – | – | –
13 | CC(C)C(C)Nc1nc(Cl)c(-c2cccc(N)c2)n(CC(=O)NCc2ccc(C(=N)N)cc2)c1=O (centres unmarked) [1526-15] | 60 | > 30 | – | – | –
14 | CC[C@@H](C)Nc1nc(Cl)c(-c2cccc(N)c2)n(CC(=O)NCc2ccc(C(=N)N)cc2)c1=O [1526-16] | 40 | > 30 | – | – | –
15 | C=CCNc1nc(Cl)c(-c2cccc(N)c2)n(CC(=O)NCc2ccc(C(=N)N)cc2)c1=O [1526-19] | 40 | > 30 | – | – | –
16 | C#CCNc1nc(Cl)c(-c2cccc(N)c2)n(CC(=O)NCc2ccc(C(=N)N)cc2)c1=O [1526-21] | 50 | > 30 | – | – | –
17 | N=C(N)c1ccc(CNC(=O)Cn2c(-c3cccc(N)c3)c(Cl)nc(NC3CCC3)c2=O)cc1 [1526-23] | 30 | > 30 | – | – | –
18 | COCCNc1nc(Cl)c(-c2cccc(N)c2)n(CC(=O)NCc2ccc(C(=N)N)cc2)c1=O [1526-25] | – | > 30 | 140 | – | –
19 | CC(C)CNc1nc(Cl)c(-c2cccc(N)c2)n(CC(=O)NCc2ccc(C(=N)N)cc2)c1=O [1526-26] | 60 | > 30 | – | – | –
20 | C[C@H](Nc1nc(Cl)c(-c2cccc(N)c2)n(CC(=O)NCc2ccc(C(=N)N)cc2)c1=O)C1CCCCC1 [1526-29] | 120 | > 30 | – | – | –

Row | Structure (SMILES) | IC50 (TF-VIIa; [1]) [nM] | IC50 (Human factor Xa; [2]) [µM] | IC50 (TF-VIIa; [3]) [nM] | IC50 or % Inhibition Factor Xa (30 µM) (Human factor Xa) | also measured
21 | N=C(N)c1ccc(CNC(=O)Cn2c(-c3cccc(N)c3)c(Cl)nc(N[C@@H]3CC4CCC3C4)c2=O)cc1 (some centres unmarked) [1526-30] | 80 | > 30 | – | – | –
22 | N=C(N)c1ccc(CNC(=O)Cn2c(-c3cccc(N)c3)c(Cl)nc(NC[C@@H]3CCCO3)c2=O)cc1 [1526-33] | 260 | > 30 | – | – | –
23 | N=C(N)c1ccc(CNC(=O)Cn2c(-c3cccc(N)c3)c(Cl)nc(NC3CCC3)c2=O)c(F)c1 [1543-39] | – | – | – | 14% | IC50 (TF-VIIa; cells without % sign: IC50; read-out: IC50 or % Inhibition TF-VIIa (30 µM)): 40 nM
24 | N=C(N)c1ccc(CNC(=O)Cn2c(Cc3ccccc3)cnc(NCCc3ccccc3)c2=O)cc1 [Example 2] | – | – | 5000 | – | IC50 (Human factor Xa): > 100 µM
25 | N=C(N)NCCC[C@H](NC(=O)Cn1c(-c2ccccc2)c(Cl)nc(NCCc2ccccc2)c1=O)C(=O)c1nccs1 [Example 3] | – | – | 200 | – | IC50 (Human factor Xa): 1 µM
26 | N=C(N)NCCC[C@H](NC(=O)Cn1c(CCc2ccccc2)c(Cl)nc(NCCc2ccccc2)c1=O)C(=O)c1nccs1 [Example 5] | – | – | 7000 | – | IC50 (Human factor Xa): 4 µM
27 | N=C(N)NCCC[C@H](NC(=O)Cn1c(-c2ccccc2)cnc(NCCc2ccccc2)c1=O)C(=O)c1nccs1 [Example 6] | – | – | 100 | – | IC50 (Human factor Xa): 1 µM
28 | N=C(N)NCCC[C@H](NC(=O)Cn1c(Cc2ccccc2)cnc(NCCc2ccccc2)c1=O)C(=O)c1nccs1 [Example 7] | – | – | 200 | – | IC50 (Human factor Xa): 3 µM
29 | N=C(N)NCCC[C@H](NC(=O)Cn1c(CCc2ccccc2)cnc(NCCc2ccccc2)c1=O)C(=O)c1nccs1 [Example 8] | – | – | 3000 | – | IC50 (Human factor Xa): 1 µM
30 | N=C(N)NCCCNC(=O)Cn1c(-c2ccccc2)cnc(NCCc2ccccc2)c1=O [Example 11] | – | – | 91000 | – | IC50 (Human factor Xa): > 100 µM
31 | N=C(N)NCCCCNC(=O)Cn1c(-c2ccccc2)cnc(NCCc2ccccc2)c1=O [Example 12] | – | – | > 100000 | – | IC50 (Human factor Xa): > 100 µM
32 | N=C(N)NCCCCCNC(=O)Cn1c(-c2ccccc2)cnc(NCCc2ccccc2)c1=O [Example 13] | – | – | > 100000 | – | IC50 (Human factor Xa): > 100 µM
33 | COc1ccc(-c2cnc(NCCc3ccccc3)c(=O)n2CC(=O)NCCCCNC(=N)N)cc1 [Example 14] | – | – | > 100000 | – | IC50 (Human factor Xa): > 100 µM
34 | N=C(N)NCCCCNC(=O)Cn1c(-c2ccc3c(c2)OCO3)cnc(NCCc2ccccc2)c1=O [Example 16] | – | – | > 100000 | – | IC50 (Human factor Xa): > 100 µM
35 | CC(C)Nc1nc(Cl)c(-c2cccc(C#N)c2)n(CC(=O)NCc2ccc(C(=N)N)cc2)c1=O [Example 17] | – | – | 710 | 41% | –
36 | N=C(N)c1ccc(CNC(=O)Cn2c(-c3ccccc3)c(Cl)nc(NCCc3ccncc3)c2=O)cc1 [Example 19] | – | – | 800 | 22%@30 | –
37 | N=C(N)c1ccc(CNC(=O)Cn2c(-c3ccc(-c4ccccc4)cc3)c(Cl)nc(NCCc3cccnc3)c2=O)cc1 [Example 21] | – | – | – | 21%@30 | IC50 or % Inhibition TF-VIIa (30 µM) (TF-VIIa; % inhibition at 30 µM): 8%@30
38 | N=C(N)c1ccc(CNC(=O)Cn2c(-c3ccc(-c4ccccc4)cc3)c(Cl)nc(NCCc3ccc(Cl)cc3)c2=O)cc1 [Example 22] | – | – | – | 13%@30 | IC50 or % Inhibition TF-VIIa (30 µM) (TF-VIIa; % inhibition at 30 µM): 0%@30
39 | N=C(N)c1ccc(CNC(=O)Cn2c(-c3cccc(Cl)c3)c(Cl)nc(NCc3ccccc3)c2=O)cc1 [Example 23] | – | – | 1700 | 38%@30 | –
40 | N=C(N)NCCCNc1nc(Cl)c(-c2ccccc2)n(CC(=O)NCc2ccc(C(=N)N)cc2)c1=O [Example 47] | – | – | 660 | – | IC50 (Human factor Xa): 10.6 µM

Row | Structure (SMILES) | IC50 (TF-VIIa; [1]) [nM] | IC50 (Human factor Xa; [2]) [µM] | IC50 (TF-VIIa; [3]) [nM] | IC50 or % Inhibition Factor Xa (30 µM) (Human factor Xa) | also measured
41 | N=C(N)NCCNc1nc(Cl)c(-c2ccccc2)n(CC(=O)NCc2ccc(C(=N)N)cc2)c1=O [Example 48] | – | – | 570 | 20% | –
42 | N=C(N)NCCCCNc1nc(Cl)c(-c2ccccc2)n(CC(=O)NCc2ccc(C(=N)N)cc2)c1=O [Example 49] | – | – | 570 | – | IC50 (Human factor Xa): 28.9 µM
43 | N=C(N)CCNc1nc(Cl)c(-c2ccccc2)n(CC(=O)NCc2ccc(C(=N)N)cc2)c1=O [Example 50] | – | – | 500 | 39% | –
44 | N=C(N)c1ccc(CNC(=O)Cn2c(-c3ccccc3)c(Cl)nc(NCc3ccc(C(=N)N)cc3)c2=O)cc1 [Example 51] | – | – | 650 | – | IC50 (Human factor Xa): 9.68 µM
45 | N=C(N)c1ccc(CNC(=O)Cn2c(-c3ccccc3)c(Cl)nc(NCc3cccc(C(=N)N)c3)c2=O)cc1 [Example 52] | – | – | 590 | – | IC50 (Human factor Xa): 24 µM
46 | N#CCCNc1nc(Cl)c(-c2ccccc2)n(CC(=O)NCc2ccc(C(=N)N)cc2)c1=O [Example 53] | – | – | 300 | 7% | –
47 | CC(C)Nc1nc(Cl)c(-c2cccc(N)c2)n(CC(=O)NCc2ccc(C(=N)N)s2)c1=O [Example 55] | – | – | 150 | 0% | –
48 | CN(C)c1cccc(-c2c(Cl)nc(NCCc3ccccc3)c(=O)n2CC(=O)NCc2ccc(C(=N)N)cc2)c1 [Example 103] | – | – | 300 | 11%@30 | –
49 | CNc1cccc(-c2c(Cl)nc(NC(C)C)c(=O)n2CC(=O)NCc2ccc(C(=N)N)cc2)c1 [Example 104] | – | – | 1200 | – | IC50 (Human factor Xa): > 30 µM
50 | N=C(N)c1ccc(CNC(=O)Cn2c(-c3ccccc3)cnc(NC(=O)Nc3ccccc3)c2=O)cc1 [Example 106] | – | – | 1110 | 30% | –
51 | N=C(N)c1ccc(CNC(=O)Cn2c(-c3ccccc3)cnc(NC(=O)Nc3cccc(N)c3)c2=O)cc1 [Example 107] | – | – | 570 | 35% | –
52 | N=C(N)c1ccc(CNC(=O)Cn2c(-c3ccccc3)cnc(NC(=O)Nc3cc(Cl)cc(Cl)c3)c2=O)cc1 [Example 108] | – | – | 4130 | 20% | –
53 | CC(C)NC(=O)Nc1ncc(-c2ccccc2)n(CC(=O)NCc2ccc(C(=N)N)cc2)c1=O [Example 109] | – | – | 6170 | 10% | –
54 | CC(C)Nc1nc(Cl)c(-c2cc(N)ccc2F)n(CC(=O)NCc2ccc(C(=N)N)cc2F)c1=O [compound 73] | – | – | 30 | 0% | –
55 | CC(C)Nc1nc(Cl)c(-c2ccc(Cl)nc2)n(CC(=O)NCc2ccc(C(=N)N)cc2F)c1=O [compound 74] | – | – | 3250 | 13% | –
56 | CC(C)Nc1nc(Cl)c(-c2cccnc2)n(CC(=O)NCc2ccc(C(=N)N)cc2)c1=O [compound 75] | – | – | 210 | 9% | –
57 | N=C(N)c1ccc(CNC(=O)Cn2c(-c3cccc([N+](=O)[O-])c3)c(Cl)nc(NCCc3ccccc3)c2=O)cc1 [compound 77] | – | > 30 | 2520 | – | –
58 | Cc1ccccc1-c1c(Cl)nc(NCCc2ccccc2)c(=O)n1CC(=O)NCc1ccc(C(=N)N)cc1 [compound 78] | – | – | 430 | 16%@30 | –
